In US20070037751A1, “Uses of secretagogues like ghrelin in cancer cachexia and for stimulating appetite” (priority 2003, published 2007):
Entries after “also recorded” stand apart in the source; their conditions may differ.

Assays:
[1] = Daily subcutaneous ghrelin for 8 weeks in gastrectomised and sham-operated mice (Example 7); format: in vivo
Protocol: Mice were subjected to gastrectomy or to sham operation. Gastrectomy was carried out by resecting the glandular stomach (antrum and fundus), followed by anastomozing the duodenum and the rumen end-to-end. The mortality associated with gastrectomy was 10%. Some of the gastrectomised and sham-operated mice received a subcutaneous dose of ghrelin (12 nmol) daily for 8 weeks. Controls received saline. […] After 8 weeks the mice were killed by decapitation (16-18 h after the last injection). Blood was collected and plasma stored at −20° C. for measurement of ghrelin (see below). Lean tissue was analysed by dual energy x-ray absorptiometry (DXA) (PIXImus, Lunar Corporation, Madison, […]., USA). White adipose tissue (WAT) (mesenteric, retroperitoneal-renal, gonadal and inguinal) and intrascapular brown adipose tissue (BAT) was dissected out and weighed
(§1) Measurement of circulating ghrelin: If not otherwise stated, determination of circulating ghrelin was carried out on plasma from animals at sacrifice (end-point analysis). Immunoactive ghrelin was measured in 20 pi plasma with a radioimmunoassay (RIA) that uses an antiserum raised against acylated human ghrelin (Phoenix Pharmaceuticals); ^125I-labelled ghrelin-28 was used as a tracer a rat ghrelin-28 as standard. […] Plasma concentrations were expressed as pmol equivalents of rat ghrelin-28 per liter. Active (octanoylated) ghrelin was determined in 50 μl plasma using an enzyme linked immunosorbent assay (ELISA) kit (LINCO Research, St. Charles, Mo., USA).
Statistical analysis: Values are expressed as means±S.E.M. Differences were analyzed by the student t-test or by one-way analysis of variance (ANOVA), using Bonferroni's multiple comparison test. A p value of less than 0.05 was considered statistically significant.

[2] = continuous intravenous infusion for 270 minutes, 5 pmol/kg/min; cited from earlier work
[3] = Clinical follow-up of a cancer cachexia patient treated with ghrelin (Example 4); format: in vivo, human
Protocol: (§2) The patient was treated with subcutaneous injections of 0.8 to 1.5 micrograms/kg ghrelin twice daily for 4 weeks. The injections were taken before meals.
The patient was followed weekly by standard laboratory tests, Cachexia/anorexia and quality of life questionnaires, body-weight, body-composition analysis (DEXA-scan) and chest-x-ray or thorax-CT among others.

[4] = Plasma ghrelin after subcutaneous bolus injection of ghrelin in mice (Example 6); format: in vivo
Protocol: as §1, with “6+6 mice received 12 or 24 nmol” for “Measurement”, “of” for “of circulating ghrelin: If not otherwise stated, determination of circulating”, “by a subcutaneous bolus injection in the neck (corresponding to 400 and 800 nmol kg^−1, respectively). […]” for “was carried out on plasma from animals at sacrifice (end-point analysis).”, “μl” for “pi”

[5] = Pharmacokinetics of ghrelin formulations after subcutaneous administration in rats (Examples 9 and 10); format: in vivo, Sprague Dawley rats; set-up: Tmax: dose or concentration left out as unconfirmed; details: rat
Protocol: Two different types of liposomes were made containing dipalmitoyl DL-α-phosphatidylcholine (DPPC ) and a mixture of phosphatidylcholin and cholesterol (PC/Chol), respectively. The liposomes were prepared by dissolving and mixing the lipids in chloroform. Chloroform was removed overnight by rotation evaporation, and the resulting lipid film was first striped with ethanol (99,9%) and then left overnight in the rotation evaporator. The multilamellar liposomes were formed by hydration in HEPES-buffer (10 mM HEPES, 50 mM KCl, 1mM NaN3, pH=5,5) for at least 1 h. The hydration temperature was 51° C. (10° C. above the Tm of the phospholipids). Subsequently, the liposomes were sonicated for 30 sec every 10 min during one hour using a tip sonicator. One hundred nanometer unilamellar liposomes were made from the multilamellar liposomes by extrusion through 100 nm polycarbonate filters. Size measurements were performed by dynamic light scattering (DLS) using a Zetasizer 4 (Malvern, UK). Tm were determined by Differential Scanning Caleometry (DSC; MicroCal™ Incorporated). Ghrelin were added approximately 2 h before the administration of the formulation to the animals in doses of 60 μg per 500 μL
Intralipid 30% were purchased from the local Pharmacy on the Danish University Hospital Copenhagen (Rigshospitalet). 1000 mL contain: purified soybean oil 300 g, purified egg phospholipids 12 g, glycerol anhydrous 16.7 g, water for injection q.s. ad 1 000 mL. pH is adjusted with sodium hyroxide to pH approximately 7.5.
Animals: Thirty (30) male Sprague Dawley rats (aged 6-7 weeks; approximately 300 g; Charles River, Germany) were used. Upon arrival at the animal facility, they were housed 3 per cage for one week, and subsequently transferred to individual cages with access to food and water ad libitum.
After one week of singly housing, the rats were ready for experiments and were randomized into 5 weight-matched groups (6 pr. group):
All compounds were administered by subcutaneous administration (0.5 ml/300g rat)
On the experimental day (0800-0930), 15 minute prior to receiving the test dose, a 200 μl blood sample was drawn from the tail vein. At time point 0 a second blood sample was drawn and immediately after rats received an sc injection with test compound according to the groups listed above. Seven more samples were drawn (volume 200 μl) at time points: 15, 30, 45, 60, 90, 120 and 240 minutes post injection according to study outline. The total blood volume drawn was 1800 μl (approx. 10% of total blood volume).
Blood samples were kept on ice until plasma separation could be performed. After centrifugation (4000 rpm for 10 minutes) plasma was transferred to vials/tubes containing 5 μL 1N HCl og 5 μL 2mg/mL solution of Phenylmethylsulfonyl fluoride in isopropanol.
The active (acylated) ghrelin in the plasma samples was measured by use of a RIA assay (Linco Research, Inc) according to the manufactures protocol.

[6] = infusion for 90 minutes, cancer cachexia patients; cited from earlier work
[7] = system: growth hormone; assay: Plasma growth hormone before and after subcutaneous ghrelin in a cancer cachexia patient (Example 4); format: in vivo, human; details: before and after the two subcutaneous injections, 0.8 to 1.5 micrograms/kg twice daily, one patient
Protocol: as §2
Pharmacokinetic and pharmacodynamic assessment was performed at day 1 and 2 by blood sampling before and after each injection and measurement of plasma levels of growth hormone and active and total ghrelin.

[8] = Clinical follow-up of a cancer cachexia patient treated with ghrelin (Example 4); format: in vivo, human; details: weekly IV injections, before the subcutaneous treatment
[9] = gastrectomised mice, 12 nmol sc daily, 8 weeks
[10] = subcutaneous 0.8 to 1.5 micrograms/kg twice daily for 4 weeks, one patient
[11] = ghrelin (200 mg/kg) in a buffer

CCCCCCCC(=O)OC[C@H](NC(=O)[C@H](CO)NC(=O)CN)C(=O)N[C@@H](Cc1ccccc1)C(=O)N[C@@H](CC(C)C)C(=O)N[C@@H](CO)C(=O)N1CCC[C@H]1C(=O)N[C@@H](CCC(=O)O)C(=O)N[C@@H](Cc1cnc[nH]1)C(=O)N[C@@H](CCC(N)=O)C(=O)N[C@@H](CCCNC(=N)N)C(=O)N[C@H](C(=O)N[C@@H](CCC(N)=O)C(=O)N[C@@H](CCC(N)=O)C(=O)N[C@@H](CCCNC(=N)N)C(=O)N[C@@H](CCCCN)C(=O)N[C@@H](CCC(=O)O)C(=O)N[C@@H](CO)C(=O)N[C@@H](CCCCN)C(=O)N[C@@H](CCCCN)C(=O)N1CCC[C@H]1C(=O)N1CCC[C@H]1C(=O)N[C@@H](C)C(=O)N[C@@H](CCCCN)C(=O)N[C@@H](CC(C)C)C(=O)N[C@@H](CCC(N)=O)C(=O)N1CCC[C@H]1C(=O)N[C@@H](CCCNC(=N)N)C(=O)O)C(C)C [ghrelin]
plasma ghrelin concentration 16-18 h after injection ([1]; 12 nmol sc daily for 8 weeks, 16-18 h after the last injection): elevated | amount of fat (fat depots) [1, 9]: normalized the fat depots | amount of lean tissue (lean body mass, DXA) [1, 9]: reversed the effect; also recorded: normalized | body weight raised [1, 9]: 8% | lean body mass, ghrelin versus saline ([1]; sham-operated mice, 12 nmol sc daily, 8 weeks): no difference | food intake [2]: increase in food intake | tumor progression (CT-scans) ([3]; mesothelioma, during the subcutaneous ghrelin treatment, 4 weeks): did not progress | body weight and body composition ([3]; subcutaneous 0.8 to 1.5 micrograms/kg twice daily before meals for 4 weeks, one patient): stable body weight and body composition | ability to eat meals [3, 10]: able to eat full plates of meals and finish these; also recorded: increased objective hunger and ability to eat meals | hunger [3, 10]: did not feel more intensified hunger; also recorded: increased objective hunger | adverse effects ([3]; subcutaneous treatment, 4 weeks): no significant adverse effects | lab values ([3]; subcutaneous treatment, weekly standard laboratory tests): did not show a substantial difference | plasma ghrelin 6 h after injection ([4]; 12 nmol sc, 6 h): still elevated | plasma concentration of active (octanoylated) ghrelin 6 h after injection ([4]; 12 nmol sc, 6 h, n=4): remained high | plasma concentration of active (octanoylated) ghrelin (ELISA) ([4]; 12 nmol sc, n=4): greatly elevated | plasma ghrelin concentration (RIA, octanoylated and des-octanoylated) ([4]; 12 and 24 nmol sc, n=6 in each group): raised | decrease of plasma concentration in the 15 min after the maximum (time point 30 min) [5, 11]: approximately 30% | further decrease of plasma concentration in the following 15 min (time point 45) [5, 11]: ~60% | increase in active ghrelin in plasma [5, 11]: approximately 10 fold | plasma level of active ghrelin after 120 min [5, 11]: slightly increased | plasma level of active ghrelin after 240 min [5, 11]: back to basal level | Tmax ([5]; male, Sprague Dawley, plasma, sc, ghrelin in a buffer, read-out: time of maximal plasma concentration of ghrelin (converted)): 15 min | increase of food intake [6]: 30% | increase in plasma growth hormone levels [7]: more than 5 fold | response to ghrelin treatment [8]: responded well
